# Reference: US20100317709A1, “SPHINGOSINE-1-PHOSPHATE (S1P) RECEPTOR COMPOUNDS” (UNIVERSITEIT LEIDEN, priority 2007, published 2010)
# Experiments:
# S1P3 receptor = S1P3 receptor (Homo sapiens, UniProt Q99500); assay: cAMP accumulation assay at the S1P3 receptor (Lance cAMP 384 kit); assay type: cell-based; details: for EC50: N.D. = not defined because the potency and/or the efficacy were too low, read-out: pEC50 S1P3 (converted); for efficacy (α) S1P3: S1P = 1.00, N.D. = not defined because the potency and/or the efficacy were too low
# Source text: (§1) A primary function of certain cell surface receptors is to activate second messenger systems upon binding of an agonist. The S1P1 receptor selectively binds to and activates Gi-proteins and activation of this receptor subtype thus results in the inhibition of cAMP production. The S1P2 receptor predominantly activates Gq-proteins finally resulting in increases in intracellular calcium. S1P3 receptor activation results in both, an inhibition of cAMP production and an increase in intracellular calcium, via the activation of Gi- and Gq-proteins
# (§2) Accordingly, we performed measurements on cAMP accumulation (Lance cAMP 384 kit, Perkin Elmer, Zaventem, Belgium) and measurements on changes in intracellular calcium (for method see Jongsma et al., 2006) (8).
# S1P1 receptor = S1P1 receptor (Homo sapiens, UniProt P21453); assay: cAMP accumulation assay at the S1P1 receptor (Lance cAMP 384 kit); assay type: cell-based; details: for EC50: N.D. = not defined because the potency and/or the efficacy were too low, read-out: pEC50 S1P1 (converted); for efficacy (α) S1P1: S1P = 1.00, N.D. = not defined because the potency and/or the efficacy were too low
# Source text: as §1, §2
# Chain of S1P1 receptor (P21453 whole entry): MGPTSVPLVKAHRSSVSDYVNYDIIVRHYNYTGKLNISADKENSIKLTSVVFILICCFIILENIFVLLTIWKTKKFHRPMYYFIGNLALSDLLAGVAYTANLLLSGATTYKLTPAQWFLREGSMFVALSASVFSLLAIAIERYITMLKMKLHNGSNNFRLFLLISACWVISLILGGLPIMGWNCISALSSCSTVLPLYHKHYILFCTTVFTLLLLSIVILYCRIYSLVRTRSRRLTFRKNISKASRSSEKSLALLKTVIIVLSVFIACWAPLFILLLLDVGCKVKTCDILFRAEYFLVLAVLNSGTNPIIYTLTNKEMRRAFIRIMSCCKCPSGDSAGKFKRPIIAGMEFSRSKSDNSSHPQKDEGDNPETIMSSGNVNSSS
# Chain of S1P3 receptor (Q99500 whole entry): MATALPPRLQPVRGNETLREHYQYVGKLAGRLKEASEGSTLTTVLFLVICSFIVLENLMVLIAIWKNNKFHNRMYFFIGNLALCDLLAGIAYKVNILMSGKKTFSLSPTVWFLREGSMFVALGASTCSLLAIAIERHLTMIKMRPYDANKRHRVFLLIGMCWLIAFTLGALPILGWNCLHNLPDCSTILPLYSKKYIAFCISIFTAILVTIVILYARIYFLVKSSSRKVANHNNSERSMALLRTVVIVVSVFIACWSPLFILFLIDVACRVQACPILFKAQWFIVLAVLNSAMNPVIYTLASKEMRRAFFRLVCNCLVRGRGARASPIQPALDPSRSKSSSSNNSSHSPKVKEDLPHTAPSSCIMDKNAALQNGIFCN
Compound,EC50 (S1P3 receptor),efficacy (α) S1P3 (S1P3 receptor),melting point,EC50 (S1P1 receptor),efficacy (α) S1P1 (S1P1 receptor)
"CCc1c(C)sc(N)c1C(=O)c1ccccc1 [LUF5464, (2-Amino-4-ethyl-5-methyl-3-thienyl)(phenyl)methanone]",> 10000 nM,+/−1 (n = 3),129 to 131 °C,–,–
"Cc1sc(N)c(C(=O)c2cccc(Cl)c2)c1C [LUF5471, (2-Amino-4,5-dimethyl-3-thienyl)(3-chlorophenyl)methanone]",–,–,114 to 116 °C,–,–
"CCc1c(C)sc(N)c1C(=O)c1cccc(C(F)(F)F)c1 [LUF5468, (2-Amino-4-ethyl-5-methyl-3-thienyl)[3-(trifluoromethyl)phenyl]methanone]",–,–,100 to 101 °C,–,–
"Nc1sc2c(c1C(=O)c1cccc(Cl)c1)CCCC2 [LUF5473, (2-Amino-4,5,6,7-tetrahydrobenzo[b]thiophen-3-yl)(3-chlorophenyl)methanone]",1860 nM,1.07,114 to 115 °C,1000 nM,0.40
"CCc1c(C)sc(N)c1C(=O)c1cccc(Cl)c1 [LUF5472, (2-Amino-4-ethyl-5-methyl-3-thienyl)(3-chlorophenyl)methanone]",–,–,99 to 102 °C,–,–
"Nc1sc2c(c1C(=O)c1cccc(C(F)(F)F)c1)CCCC2 [LUF5469, (2-Amino-4,5,6,7-tetrahydrobenzo[b]thiophen-3-yl)[3-(trifluoromethyl)phenyl]methanone]",1290 nM,1.07,122 to 123 °C,–,–
"CCc1c(C)sc(N)c1C(=O)c1ccc(Cl)cc1 [LUF5482, (2-Amino-4-ethyl-5-methyl-3-thienyl)(4-chlorophenyl)methanone]",–,–,108 to 110 °C,–,–
"Nc1sc2c(c1C(=O)c1ccc(Cl)c(Cl)c1)CCCC2 [LUF5484, (2-Amino-4,5,6,7-tetrahydrobenzo[b]thiophen-3-yl)(3,4-dichlorophenyl)methanone]",> 10000 nM,<0.5 (n = 2),152 to 154 °C,–,–
"Nc1sc2c(c1C(=O)c1ccc(Cl)cc1)CCCC2 [LUF5480, (2-Amino-4,5,6,7-tetrahydrobenzo[b]thiophen-3-yl)(4-chlorophenyl)methanone]",6760 nM,0.37,–,–,–
"Nc1sc2c(c1C(=O)c1ccccc1)CCCC2 [LUF5465, (2-Amino-4,5,6,7-tetrahydrobenzo[b]thiophen-3-yl)(phenyl)methanone]",> 10000 nM,>0.5,–,–,–

# Now from value to compound:
EC50 (S1P3 receptor),efficacy (α) S1P3 (S1P3 receptor),melting point,EC50 (S1P1 receptor),efficacy (α) S1P1 (S1P1 receptor),Compound
933 nM,0.25,159 to 160 °C,–,–,"COC(=O)c1ccc(C(=O)c2c(N)sc3c2CCCC3)cc1 [LUF5492, Methyl 4[(2-Amino-4,5,6,7-tetrahydrobenzo[b]thiophen-3-yl)-carbonyl]benzoate]"
–,–,173 to 175 °C,–,–,"Nc1sc(-c2ccccc2)cc1C(=O)c1ccc(Cl)cc1 [LUF5488, (2-Amino-5-phenyl-3-thienyl)(4-chlorophenyl)methanone]"
–,–,232 to 233 °C,–,–,"Nc1sc2c(c1C(=O)c1ccc(C(=O)O)cc1)CCCC2 [LUF5493, 4-[(2-Amino-4,5,6,7-tetrahydrobenzo[b]thiophen-3-yl)-carbonyl]benzoic acid]"
1260 nM,0.94,160 to 162 °C,1380 nM,0.46,"Nc1sc2c(c1C(=O)c1cccc(I)c1)CCCC2 [LUF5533, (2-Amino-4,5,6,7-tetrahydrobenzo[b]thiophen-3-yl)(3-iodophenyl)methanone]"
> 10000 nM,–,145 to 147 °C,–,–,"Nc1sc2c(c1C(=O)c1ccc(C(F)(F)F)cc1)CCCC2 [LUF5489, (2-Amino-4,5,6,7-tetrahydrobenzo[b]thiophen-3-yl)[4-(trifluoromethyl)phenyl]methanone]"
4170 nM,0.71,145 to 147 °C,4170 nM,0.63,"Nc1sc2c(c1C(=O)c1ccccc1Cl)CCCC2 [LUF5532, (2-Amino-4,5,6,7-tetrahydrobenzo[b]thiophen-3-yl)(2-chlorophenyl)methanone]"
> 10000 nM,<0.5 (n = 2),150 to 152 °C,–,–,"Nc1sc2c(c1C(=O)c1ccc(I)cc1)CCCC2 [LUF5528, (2-Amino-4,5,6,7-tetrahydrobenzo[b]thiophen-3-yl)(4-iodophenyl)methanone]"
0.347 nM,1.00,–,0.138 nM,1.00,"CCCCCCCCCCCCC/C=C/[C@@H](O)[C@@H](N)COP(=O)(O)O [S1P, sphingosine-1-phosphate]"
–,–,123 to 125 °C,–,–,"Cc1sc(N)c(C(=O)c2ccc(Cl)cc2)c1C [LUF5487, (2-Amino-4,5-dimethyl-3-thienyl)(4-chlorophenyl)methanone]"
–,–,202 to 204 °C,–,–,"Nc1sc2c(c1C(=O)c1ccc([N+](=O)[O-])cc1)CCCC2 [LUF5526, (2-Amino-4,5,6,7-tetrahydrobenzo[b]thiophen-3-yl)(4-nitrophenyl)methanone]"
> 10000 nM,–,199 to 200 °C,–,–,"Nc1sc(CN2C(=O)c3ccccc3C2=O)cc1C(=O)c1cccc(C(F)(F)F)c1 [LUF5496, 2-({5-Amino-4-[3-(trifluoromethyl)benzoyl]-2-thienyl}methyl)-1,3-isoindolinedione]"
3090 nM,0.96,155 to 156 °C,–,–,"Cc1ccc(C(=O)c2c(N)sc3c2CCCC3)cc1 [LUF5527, (2-Amino-4,5,6,7-tetrahydrobenzo[b]thiophen-3-yl)(4-methylphenyl)methanone]"
1150 nM,0.41,152 to 153 °C,–,–,"Nc1sc2c(c1C(=O)c1ccc(Br)cc1)CCCC2 [LUF5490, (2-Amino-4,5,6,7-tetrahydrobenzo[b]thiophen-3-yl)(4-bromophenyl)methanone]"
